This note sets out measurements from patent US20040171795A1, “Novel peptides” (priority 2000, published 2004).

A short description of data set [1]: Measurement of turbidity in BSA. Type of data set: physicochemical. Conditions: BSA 1%, peptide 50 μM, absorbance at 600 nm. On the procedure: The solutions were evaluated for their absorbance at a wavelength of 600 nm by using a spectrophotometer (DU640, manufactured by Beckman).
A short description of data set [2]: Affinity for phosphatidyl serine (EIA, inhibition of human Factor VIII binding). Conditions: class of IC50 for inhibiting human Factor VIII binding, 5% BSA. Here is the method: The specific affinity of the peptide for phosphatidyl serine was evaluated by measuring activity of the peptide for inhibiting the binding of the human Factor VIII to phosphatidyl serine by using human Factor VIII which is known to bind to phosphatidyl serine but not to phosphatidyl choline in the presence of serum albumin. To be more specific, 100 μL of ethanol solution containing 10 μg/mL of phospholipids at a phosphatidyl serine (manufactured by SIGMA): phosphatidyl choline (manufactured by SIGMA) ratio of 3:7 was added to the wells of a 96 well plate (Immulon I, manufactured by Dynatech), and exsiccated by using a centrifugal evaporator (EC-95C, manufactured by Sakuma Seisakusho) at 40° C. for 40 minutes. 200 μL each of TBS (10 mM Tris-HCl (pH 7.4) containing 1% bovine serum albumin (BSA Fraction V, hereinafter referred to as BSA, manufactured by Seikagaku Corporation) and 0.9% (W/V) NaCl solution were added to each well, and the wells were blocked by allowing the plate to stand at 37° C. for 2.5 hours. After washing the plate with water, 100 μL of TBS solution supplemented with 5% BSA mixed with human Factor VIII (manufactured by American Diagnostica) at a final concentration 1 μg/mL and the peptide of predetermined dose prepared in Example 1 was added to each well, and the reaction was allowed to take place at 4° C. for 24 hours.
After the completion of the reaction, the human Factor VIII that became bound to the phosphatidyl serine was measured by enzyme immunoassay (EIA) in accordance with the general procedure described in a book (“Enzyme Immunoassay (3rd ed.)”, Eiji Ishikawa et al., Igaku-Shoin, 1987). To be more specific, the measurement was conducted by using anti-human Factor VIII mouse monoclonal antibody (ESH8, manufactured by American Diagnostica) for the primary antibody, horseradish peroxidase-labeled anti-mouse IgG antibody (P0260, manufactured by Daco) for the secondary antibody, and tetramethylbenzidine for the chromogenic substrate, and measuring the absorption at a wavelength of 450 nm by using a reference wavelength of 630 nm on a spectrophotometer (NJ-2100, manufactured by Intermed).
Intensity of the affinity of the peptide for the phosphatidyl serine was evaluated by using the value obtained by subtracting the absorption of the well having no human Factor VIII added thereto from the absorption of the well having only the human Factor VIII added thereto as the control value (100%), and designating the peptide concentration at which the value 0.5 was obtained when the value obtained by subtracting the absorption of the well having only the peptide added thereto from the absorption of the well having a mixture of the human Factor VIII and the peptide added thereto were divided by the control value as the IC50 value, and evaluating the intensity to be ++ when the IC50 value was up to 1 μM, and +when the intensity was more than 1 μM but not more than 10 μM. It is to be noted that the specific affinity was evaluated to be none when the intensity was 10 μM or more.

In the next data set the test system is Vero. Kind of data set: Luciferase plasmid introduction versus phosphatidyl serine translocation. Type of data set: cell-based, monkey. An excerpt: A cell line established from monkey kidney (Vero cell) and a human bladder cancer cell (T24 cell) purchased from American Type Culture Collection (ATCC) and human lung cancer cell (A549 cell) purchased from Dainippon Pharmaceutical were inoculated on a 24 well culture plate (manufactured by NALGEN NUNC) at 1×10^5 cells/well. Vero cell and A549 cell were cultivated in DMEM (manufactured by Life Technologies Oriental) supplemented with 10% fetal bovine serum (hereinafter referred to as FBS, manufactured by NICHIREI), and T24 cell was cultivated in McCoy's 5a (manufactured by Life Technologies Oriental) supplemented with 10% FBS in 5% CO2 atmosphere at 37° C. for 24 hours. […] The luciferase activity expressed in the cell was then measured by the method instructed in luciferase assay system (manufactured by Promega). […] 20 μL of this cell lysate and 100 μL of the Luciferase Assay Reagent II attached to the kit was added to a fluorescence-measuring plate (Microlite™ 1 plate, manufactured by Dynatech), and after mixing, fluorescence was measured for 1 second by using a multilabel counter (ARVO™ SY1420 MULTILABEL COUNTER, manufactured by Wallac Beltold. […]

A word on the IC50: it is the midpoint of a concentration-inhibition curve. As for “SEQ ID NO: 1: peptide having the amino acid sequence of SEQ ID NO:1, made by solid phase synthesis (TRYLRIHPRSWVHQIALRLRYLRIHPRSWVHQIALRS; synthetic peptide using an automatic peptide synthesizer)”, in data set [1], the “OD 600” value was found to be 0.03. This substance also had a concentration for half-maximal inhibition (IC50) in data set [2] of less than 1 µM. Also, the Luciferase activity with Vero is 2.5 × 10^6 cps/mg protein.
